Measurements as given in patent US8410112B2, “Compounds useful as inhibitors of ATR kinase” (Vertex Pharmaceuticals Incorporated, priority 2008, dated 2013).
pIC50, pKi: −log10 of the molar value.

Assays:
[1] = molecular target: T1, intracellular ATR (Homo sapiens, UniProt Q13535); test: Cellular ATR Inhibition Assay (H2AX phosphorylation, immunofluorescence microscopy); type: cell-based; conditions: HT29 cells, 2 mM hydroxyurea, percentage of phosphorylated H2AX Ser139-positive nuclei
T1 construct: endogenous in cells; host or cells: HT29
Description: Compounds were screened for their ability to inhibit intracellular ATR using an immunofluorescence microscopy assay to detect phosphorylation of the ATR substrate histone H2AX in hydroxyurea treated cells. HT29 cells were plated at 14,000 cells per well in 96-well black imaging plates (BD 353219) in McCoy's 5A media (Sigma M8403) supplemented with 10% foetal bovine serum (JRH Biosciences 12003), Penicillin/Streptomycin solution diluted 1:100 (Sigma P7539), and 2 mM L-glumtamine (Sigma G7513), and allowed to adhere overnight at 37° C. in 5% CO2. Compounds were then added to the cell media from a final concentration of 25 μM in 3-fold serial dilutions and the cells were incubated at 37° C. in 5% CO2. After 15 min, hydroxyurea (Sigma H8627) was added to a final concentration of 2 mM.
After 45 min of treatment with hydroxyurea, the cells were washed in PBS, fixed for 10 min in 4% formaldehyde diluted in PBS (Polysciences Inc 18814), washed in 0.2% Tween-20 in PBS (wash buffer), and permeabilised for 10 min in 0.5% Triton X-100 in PBS, all at room temperature. The cells were then washed once in wash buffer and blocked for 30 min at room temperature in 10% goat serum (Sigma G9023) diluted in wash buffer (block buffer). To detect H2AX phosphorylation levels, the cells were then incubated for 1 h at room temperature in primary antibody (mouse monoclonal anti-phosphorylated histone H2AX Ser139 antibody; Upstate 05-636) diluted 1:250 in block buffer. The cells were then washed five times in wash buffer before incubation for 1 h at room temperature in the dark in a mixture of secondary antibody (goat anti-mouse Alexa Fluor 488 conjugated antibody; Invitrogen A11029) and Hoechst stain (Invitrogen H3570); diluted 1:500 and 1:5000, respectively, in wash buffer. The cells were then washed five times in wash buffer and finally 100 ul PBS was added to each well before imaging.
Cells were imaged for Alexa Fluor 488 and Hoechst intensity using the BD Pathway 855 Bioimager and Attovision software (BD Biosciences, Version 1.6/855) to quantify phosphorylated H2AX Ser139 and DNA staining, respectively. The percentage of phosphorylated H2AX-positive nuclei in a montage of 9 images at 20× magnification was then calculated for each well using BD Image Data Explorer software (BD Biosciences Version 2.2.15). Phosphorylated H2AX-positive nuclei were defined as Hoechst-positive regions of interest containing Alexa Fluor 488 intensity at 1.75-fold the average Alexa Fluor 488 intensity in cells not treated with hydroxyurea. The percentage of H2AX positive nuclei was finally plotted against concentration for each compound and IC50s for intracellular ATR inhibition were determined using Prism software (GraphPad Prism version 3.0cx for Macintosh, GraphPad Software, San Diego Calif., USA).

[2] = molecular target: T2, full-length ATR (Homo sapiens, UniProt Q13535); test: ATR Inhibition Assay (radioactive-phosphate incorporation); type: biochemical; conditions: Ki(app); 5 nM full-length ATR, 10 μM ATP, 800 μM target peptide, 25° C.
T2 construct: in the presence of 5 nM full-length ATR
In short: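 After a 10-min pre-incubation of compound with 5 nM enzyme at 25 °C, ATP was added to start the reaction (final 10 μM [γ-33P]ATP, 800 μM peptide; Tris/HCl pH 7.5, MgCl2, DTT), which ran 24 h. Incorporated 33P was captured on phosphocellulose filters, and Ki(app) was fitted by non-linear regression.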

T2 sequence (Q13535 whole entry): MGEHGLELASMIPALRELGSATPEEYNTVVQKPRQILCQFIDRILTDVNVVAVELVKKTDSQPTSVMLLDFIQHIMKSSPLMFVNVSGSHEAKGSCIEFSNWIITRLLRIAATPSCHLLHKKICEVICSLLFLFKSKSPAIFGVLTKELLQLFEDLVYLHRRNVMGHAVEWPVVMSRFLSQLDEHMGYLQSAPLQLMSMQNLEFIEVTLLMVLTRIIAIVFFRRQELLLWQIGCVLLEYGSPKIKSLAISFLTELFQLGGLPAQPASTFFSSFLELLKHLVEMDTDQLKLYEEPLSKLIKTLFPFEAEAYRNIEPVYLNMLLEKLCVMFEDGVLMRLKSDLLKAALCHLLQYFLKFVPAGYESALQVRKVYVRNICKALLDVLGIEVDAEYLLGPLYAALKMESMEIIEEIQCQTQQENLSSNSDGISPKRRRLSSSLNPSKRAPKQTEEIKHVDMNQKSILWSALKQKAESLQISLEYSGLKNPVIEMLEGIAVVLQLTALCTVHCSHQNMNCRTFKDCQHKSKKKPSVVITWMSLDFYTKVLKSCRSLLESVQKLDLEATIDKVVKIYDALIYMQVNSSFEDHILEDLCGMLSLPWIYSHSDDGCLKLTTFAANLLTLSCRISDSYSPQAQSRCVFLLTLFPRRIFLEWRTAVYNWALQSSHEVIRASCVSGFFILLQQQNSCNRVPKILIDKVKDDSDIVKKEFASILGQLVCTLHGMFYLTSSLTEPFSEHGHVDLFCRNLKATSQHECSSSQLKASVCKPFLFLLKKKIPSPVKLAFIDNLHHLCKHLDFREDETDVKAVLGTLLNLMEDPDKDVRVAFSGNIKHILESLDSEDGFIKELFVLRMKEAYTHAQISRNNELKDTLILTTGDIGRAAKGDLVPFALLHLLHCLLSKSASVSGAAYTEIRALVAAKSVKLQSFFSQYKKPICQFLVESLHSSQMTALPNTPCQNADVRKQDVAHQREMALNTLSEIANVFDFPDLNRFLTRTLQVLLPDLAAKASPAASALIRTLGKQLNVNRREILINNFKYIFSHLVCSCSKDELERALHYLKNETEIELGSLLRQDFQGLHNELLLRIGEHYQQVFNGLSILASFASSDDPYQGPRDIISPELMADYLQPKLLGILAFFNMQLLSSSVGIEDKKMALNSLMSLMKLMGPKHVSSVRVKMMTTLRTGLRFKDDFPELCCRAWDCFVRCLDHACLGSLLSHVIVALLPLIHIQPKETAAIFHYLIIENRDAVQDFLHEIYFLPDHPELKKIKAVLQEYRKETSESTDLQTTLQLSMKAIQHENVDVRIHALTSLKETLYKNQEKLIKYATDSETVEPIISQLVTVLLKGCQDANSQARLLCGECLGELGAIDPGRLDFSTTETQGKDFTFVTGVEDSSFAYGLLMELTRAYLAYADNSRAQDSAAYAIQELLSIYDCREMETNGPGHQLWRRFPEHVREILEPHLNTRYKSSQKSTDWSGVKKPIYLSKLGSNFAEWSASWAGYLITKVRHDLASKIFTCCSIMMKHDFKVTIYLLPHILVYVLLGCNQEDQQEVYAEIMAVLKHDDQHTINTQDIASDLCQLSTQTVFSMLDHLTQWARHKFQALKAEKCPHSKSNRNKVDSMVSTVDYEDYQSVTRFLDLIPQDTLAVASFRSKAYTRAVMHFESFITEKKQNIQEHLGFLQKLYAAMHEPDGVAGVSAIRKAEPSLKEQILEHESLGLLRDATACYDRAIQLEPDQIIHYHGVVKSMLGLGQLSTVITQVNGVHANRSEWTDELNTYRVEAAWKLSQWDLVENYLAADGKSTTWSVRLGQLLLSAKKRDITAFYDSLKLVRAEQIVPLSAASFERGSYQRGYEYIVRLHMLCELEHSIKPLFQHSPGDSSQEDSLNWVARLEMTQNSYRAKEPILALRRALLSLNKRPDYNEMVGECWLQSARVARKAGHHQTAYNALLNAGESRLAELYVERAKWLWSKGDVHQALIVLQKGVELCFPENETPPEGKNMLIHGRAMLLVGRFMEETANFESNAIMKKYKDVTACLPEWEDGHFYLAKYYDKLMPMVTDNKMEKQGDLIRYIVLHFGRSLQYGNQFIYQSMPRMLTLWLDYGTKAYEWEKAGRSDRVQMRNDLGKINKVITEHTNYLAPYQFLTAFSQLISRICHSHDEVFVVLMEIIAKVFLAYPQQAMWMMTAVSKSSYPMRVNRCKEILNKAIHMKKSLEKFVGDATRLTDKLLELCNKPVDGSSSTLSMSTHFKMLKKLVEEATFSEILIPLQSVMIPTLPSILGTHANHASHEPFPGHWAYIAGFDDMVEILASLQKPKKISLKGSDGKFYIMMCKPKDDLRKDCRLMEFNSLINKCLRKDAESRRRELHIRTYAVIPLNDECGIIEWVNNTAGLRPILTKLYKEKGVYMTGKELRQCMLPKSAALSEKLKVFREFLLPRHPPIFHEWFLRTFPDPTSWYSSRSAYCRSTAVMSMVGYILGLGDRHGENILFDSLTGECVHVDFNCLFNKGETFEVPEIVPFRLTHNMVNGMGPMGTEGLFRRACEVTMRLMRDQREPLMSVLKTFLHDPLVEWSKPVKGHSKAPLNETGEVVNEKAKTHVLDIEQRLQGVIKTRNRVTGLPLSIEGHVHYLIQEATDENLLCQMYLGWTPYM
T1 sequence (Q13535 whole entry): as above
T1 sequence (Q8WXE1 whole entry partner): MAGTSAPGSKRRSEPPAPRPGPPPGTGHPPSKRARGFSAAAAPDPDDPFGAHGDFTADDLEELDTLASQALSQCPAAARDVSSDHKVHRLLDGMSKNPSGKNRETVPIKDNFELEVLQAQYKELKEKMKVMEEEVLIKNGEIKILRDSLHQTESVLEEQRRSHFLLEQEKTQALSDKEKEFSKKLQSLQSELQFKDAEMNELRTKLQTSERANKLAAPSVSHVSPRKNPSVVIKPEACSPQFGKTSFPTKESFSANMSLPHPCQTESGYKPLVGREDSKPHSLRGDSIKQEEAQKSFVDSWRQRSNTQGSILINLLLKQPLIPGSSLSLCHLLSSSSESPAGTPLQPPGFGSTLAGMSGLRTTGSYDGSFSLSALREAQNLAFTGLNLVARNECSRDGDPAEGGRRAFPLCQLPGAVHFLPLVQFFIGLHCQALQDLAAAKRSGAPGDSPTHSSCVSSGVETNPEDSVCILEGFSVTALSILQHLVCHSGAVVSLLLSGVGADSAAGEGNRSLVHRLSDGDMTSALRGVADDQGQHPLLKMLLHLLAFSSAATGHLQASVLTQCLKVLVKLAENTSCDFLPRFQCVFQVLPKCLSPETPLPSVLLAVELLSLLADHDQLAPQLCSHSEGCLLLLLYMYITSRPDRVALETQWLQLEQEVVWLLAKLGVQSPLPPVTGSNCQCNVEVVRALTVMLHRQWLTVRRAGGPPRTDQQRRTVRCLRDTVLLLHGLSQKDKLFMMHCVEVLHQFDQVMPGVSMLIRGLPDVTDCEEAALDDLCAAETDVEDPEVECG

pIC50 [1] | pKi [2] | SMILES
4.52 to 5.00 | 6.00 to 7.00 | CCS(=O)(=O)N1CCN(c2cnc(N)c(-c3nc4ccccc4[nH]3)n2)CC1 [Compound I-16, 3-(1H-benzo[d]imidazol-2-yl)-5-(4-(ethylsulfonyl)piperazin-1-yl)pyrazin-2-amine]
5.30 to 6.00 | > 7.00 | Cc1ccc2nc(-c3nc(-n4ccc(=O)cc4)cnc3N)[nH]c2c1 [Compound I-24, 1-(5-amino-6-(6-methyl-1H-benzo[d]imidazol-2-yl)pyrazin-2-yl)pyridin-4(1H)-one]
5.30 to 6.00 | > 7.00 | CN(C)S(=O)(=O)N1CC=C(c2cnc(N)c(-c3nc4cccnc4[nH]3)n2)CC1 [Compound I-26, 4-(5-amino-6-(3H-imidazo[4,5-b]pyridin-2-yl)pyrazin-2-yl)-N,N-dimethyl-5,6-dihydropyridine-1(2H)-sulfonamide]
> 6.00 | > 7.00 | CCS(=O)(=O)N1CC=C(c2cnc(N)c(-c3nc4cccnc4[nH]3)n2)CC1 [Compound I-27, 5-(1-(ethylsulfonyl)-1,2,3,6-tetrahydropyridin-4-yl)-3-(3H-imidazo[4,5-b]pyridin-2-yl)pyrazin-2-amine]
5.00 to 5.30 | > 7.00 | CCS(=O)(=O)N1CC=C(c2cnc(N)c(-c3nnc(-c4ccccc4)o3)n2)CC1 [Compound I-28, 5-(1-(ethylsulfonyl)-1,2,3,6-tetrahydropyridin-4-yl)-3-(5-phenyl-1,3,4-oxadiazol-2-yl)pyrazin-2-amine]
 | > 7.00 | CCC(=O)NC1CC=C(c2cnc(N)c(-c3nnc(-c4ccc(CNC)cc4)o3)n2)CC1 (stereo not drawn) [Compound I-367, N-(4-(5-Amino-6-(5-(4-((methylamino)methyl)phenyl)-1,3,4-oxadiazol-2-yl)pyrazin-2-yl)cyclohex-3-enyl)propionamide]
 | 6.00 to 7.00 | CNCc1ccc(-c2nnc(-c3nc(N4CCC5(C4)CN(S(=O)(=O)C(C)C)C5)cnc3N)o2)cc1 [Compound I-368, 5-(2-(Isopropylsulfonyl)-2,6-diazaspiro[3.4]octan-6-yl)-3-(5-(4-((methylamino)methyl)phenyl)-1,3,4-oxadiazol-2-yl)pyrazin-2-amine]
 | > 7.00 | CCS(=O)(=O)N[C@@H]1C2CN(c3cnc(N)c(-c4nnc(-c5ccc(CNC)cc5)o4)n3)C[C@@H]21 (stereo partly drawn) [Compound I-369]
 | 6.00 to 7.00 | CNCc1ccc(-c2nnc(-c3nc(N4C[C@@H]5[C@H](C4)[C@@H]5NS(=O)(=O)C(C)C)cnc3N)o2)cc1 [Compound I-370, N-[(1S,5R)-3-[5-Amino-6-[5-[4-(methylaminomethyl)phenyl]-1,3,4-oxadiazol-2-yl]pyrazin-2-yl]-3-azabicyclo[3.1.0]hexan-6-yl]propane-2-sulfonamide]
 | 6.00 to 7.00 | CNCc1ccc(-c2nnc(-c3nc(N4CCC(O)C4)cnc3N)o2)cc1 (stereo not drawn) [Compound I-371, (35)-1-[5-Amino-6-[5-[4-(methylaminomethyl)phenyl]-1,3,4-oxadiazol-2-yl]pyrazin-2-yl]pyrrolidin-3-ol]
 | 6.00 to 7.00 | CCNC(=O)O[C@H]1CCN(c2cnc(N)c(-c3nnc(-c4ccc(CNC)cc4)o3)n2)C1 [Compound I-372, [(3S)-1-[5-Amino-6-[5-[4-(methylaminomethyl)phenyl]-1,3,4-oxadiazol-2-yl]pyrazin-2-yl]pyrrolidin-3-yl]N-ethylcarbamate]
 | 6.00 to 7.00 | CNCc1ccc(-c2nnc(-c3nc(N4CC[C@H](OC(=O)NCCOC)C4)cnc3N)o2)cc1 [Compound I-373, [(3S)-1-[5-Amino-6-[5-[4-(methylaminomethyl)phenyl]-1,3,4-oxadiazol-2-yl]pyrazin-2-yl]pyrrolidin-3-yl]N-(2-methoxyethyl)carbamate]
 | 5.00 to 6.00 | CNCc1ccc(-c2nnc(-c3nc(C4CC4C(=O)N4CC[C@@H](N)C4)cnc3N)o2)cc1 (stereo partly drawn) [Compound I-374, (2-(5-Amino-6-(5-(4-((methylamino)methyl)phenyl)-1,3,4-oxadiazol-2-yl)pyrazin-2-yl)cyclopropyl)((R)-3-aminopyrrolidin-1-yl)methanone]
 | 6.00 to 7.00 | CCNC(=O)C1CC1c1cnc(N)c(-c2nnc(-c3ccc(CNC)cc3)o2)n1 (stereo not drawn) [Compound I-375, 2-[5-Amino-6-[5-[4-(methylaminomethyl)phenyl]-1,3,4-oxadiazol-2-yl]pyrazin-2-yl]-N-ethyl-cyclopropanecarboxamide]
 | 6.00 to 7.00 | CNCc1ccc(-c2nnc(-c3nc(C4CC4C(=O)NCC(O)CO)cnc3N)o2)cc1 (stereo not drawn) [Compound I-376, 2-[5-Amino-6-[5-[4-(methylaminomethyl)phenyl]-1,3,4-oxadiazol-2-yl]pyrazin-2-yl]-N-(2,3-dihydroxypropyl)cyclopropanecarboxamide]
 | 5.00 to 6.00 | CNCc1ccc(-c2nnc(-c3nc(C4CC4C(=O)N(C)CCOC)cnc3N)o2)cc1 (stereo not drawn) [Compound I-377]
